Assay results taken from patent US8067042B1 (Mutual Pharmaceutical Company, Inc., priority 2007, dated 2011).

Legend:
[1] = target: T1, CYP2B6 (Homo sapiens, UniProt P20813); settings: 50 μM (with 1% methanol)
T1 sequence (P20813 1-491): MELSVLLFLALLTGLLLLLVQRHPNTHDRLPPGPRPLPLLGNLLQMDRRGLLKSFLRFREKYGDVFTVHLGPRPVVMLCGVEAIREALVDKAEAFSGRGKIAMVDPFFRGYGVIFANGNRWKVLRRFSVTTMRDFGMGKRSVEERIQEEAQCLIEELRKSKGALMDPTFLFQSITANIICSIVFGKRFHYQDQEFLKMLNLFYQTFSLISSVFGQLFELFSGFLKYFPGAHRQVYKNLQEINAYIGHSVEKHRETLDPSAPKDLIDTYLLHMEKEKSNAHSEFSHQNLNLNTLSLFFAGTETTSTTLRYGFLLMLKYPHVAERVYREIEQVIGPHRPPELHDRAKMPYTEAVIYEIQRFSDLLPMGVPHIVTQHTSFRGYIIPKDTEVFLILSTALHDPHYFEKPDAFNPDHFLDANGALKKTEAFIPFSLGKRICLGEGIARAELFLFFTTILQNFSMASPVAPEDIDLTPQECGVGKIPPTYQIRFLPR
Description: All incubations were carried out in triplicates.

[2] = target: T2, CYP2C9 (Homo sapiens, UniProt P11712); format: in vitro ADME; settings: 50 μM megestrol acetate, microsomes
T2 sequence (P11712 whole entry): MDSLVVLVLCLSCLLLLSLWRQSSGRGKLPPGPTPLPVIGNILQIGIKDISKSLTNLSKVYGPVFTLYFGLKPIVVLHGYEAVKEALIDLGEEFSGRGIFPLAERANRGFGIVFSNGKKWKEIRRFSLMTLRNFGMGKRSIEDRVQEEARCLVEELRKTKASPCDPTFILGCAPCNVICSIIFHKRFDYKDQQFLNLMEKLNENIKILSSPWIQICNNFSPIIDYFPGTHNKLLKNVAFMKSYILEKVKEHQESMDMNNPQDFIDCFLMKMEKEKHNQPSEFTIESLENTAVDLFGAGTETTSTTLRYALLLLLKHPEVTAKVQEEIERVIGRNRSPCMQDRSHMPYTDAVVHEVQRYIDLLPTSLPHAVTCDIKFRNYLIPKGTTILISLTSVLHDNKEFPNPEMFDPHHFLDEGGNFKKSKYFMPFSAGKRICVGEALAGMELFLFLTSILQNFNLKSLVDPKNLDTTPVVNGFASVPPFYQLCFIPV

[3] = target: T3, CYP1A2 (Homo sapiens, UniProt P05177)
T3 sequence (P05177 1-516): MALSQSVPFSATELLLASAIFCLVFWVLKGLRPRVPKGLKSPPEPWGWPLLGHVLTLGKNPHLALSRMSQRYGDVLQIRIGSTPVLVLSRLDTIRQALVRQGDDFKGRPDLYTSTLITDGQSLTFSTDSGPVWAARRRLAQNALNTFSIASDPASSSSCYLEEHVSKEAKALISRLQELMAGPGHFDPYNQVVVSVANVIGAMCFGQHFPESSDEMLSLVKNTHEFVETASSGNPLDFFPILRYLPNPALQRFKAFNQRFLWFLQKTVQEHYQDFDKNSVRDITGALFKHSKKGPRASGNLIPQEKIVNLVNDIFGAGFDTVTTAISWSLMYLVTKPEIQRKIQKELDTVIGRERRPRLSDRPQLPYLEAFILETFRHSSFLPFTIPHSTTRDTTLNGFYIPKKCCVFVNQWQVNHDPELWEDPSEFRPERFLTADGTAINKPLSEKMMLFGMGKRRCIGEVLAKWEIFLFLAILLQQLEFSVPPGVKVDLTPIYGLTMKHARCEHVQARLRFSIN
Description: (§1) The stock solutions were added to incubation mixtures to obtain the final concentrations of 5 and 50 μM, each containing 1% acetonitrile.
(§2) Microsomes were prepared by differential centrifugation of liver homogenates pooled from at least ten human donors.
(§3) After a 5 minute preincubation, nicotinamide adenine dinucleotide phosphate (NADPH) regenerating system (NRS; 1.7 mg/mL β-NADP, 7.8 mg/mL glucose-6-phosphate, and 6 units/mL glucose-6-phosphate dehydrogenase in 2% sodium bicarbonate solution) was added to initiate the reaction. The final incubation volume was 0.5 mL. Incubations were continued for 60 minutes.
(§4) All incubations were conducted at 37±1° C. in a shaking water bath. All incubations were carried out in triplicates.
(§5) After a 5-minute preincubation, 2% sodium bicarbonate solution was added to the incubation mixtures. The final incubation volume was 0.5 mL. Incubations were continued for 60 minutes.
(§6) Incubation reactions, including the matrix controls and metabolic negative controls, were terminated by adding 0.5 mL methanol.
(§7) The samples were analyzed on a Supelcosil LC-18 column (3μ, 120 Å, 3.0×100 mm).

[4] = tested on: CYP2C8
[5] = target: T2, CYP2C9
Description: as §1, §2, §3, §4, §5, §6, §7

[6] = target: CYP2C19 (Homo sapiens, UniProt P33261)
Chain of CYP2C19 (P33261 whole entry): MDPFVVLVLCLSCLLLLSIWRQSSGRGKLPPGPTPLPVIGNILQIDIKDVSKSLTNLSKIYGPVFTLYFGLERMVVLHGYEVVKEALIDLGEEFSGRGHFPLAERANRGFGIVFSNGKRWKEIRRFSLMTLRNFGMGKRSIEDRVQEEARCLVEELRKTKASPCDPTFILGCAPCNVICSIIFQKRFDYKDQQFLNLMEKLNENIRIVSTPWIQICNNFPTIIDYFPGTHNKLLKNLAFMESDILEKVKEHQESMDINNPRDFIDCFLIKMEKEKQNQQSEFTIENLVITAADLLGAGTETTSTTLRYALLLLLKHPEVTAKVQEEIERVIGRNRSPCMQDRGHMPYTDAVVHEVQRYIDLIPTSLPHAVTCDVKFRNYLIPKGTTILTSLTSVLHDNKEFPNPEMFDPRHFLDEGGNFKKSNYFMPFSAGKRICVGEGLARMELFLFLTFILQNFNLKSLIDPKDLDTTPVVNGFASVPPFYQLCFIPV
Description: as §1, §2, §3, §4, §5, §6, §7

[7] = target: T4, CYP2D6 (Homo sapiens, UniProt P10635)
T4 sequence (P10635 whole entry): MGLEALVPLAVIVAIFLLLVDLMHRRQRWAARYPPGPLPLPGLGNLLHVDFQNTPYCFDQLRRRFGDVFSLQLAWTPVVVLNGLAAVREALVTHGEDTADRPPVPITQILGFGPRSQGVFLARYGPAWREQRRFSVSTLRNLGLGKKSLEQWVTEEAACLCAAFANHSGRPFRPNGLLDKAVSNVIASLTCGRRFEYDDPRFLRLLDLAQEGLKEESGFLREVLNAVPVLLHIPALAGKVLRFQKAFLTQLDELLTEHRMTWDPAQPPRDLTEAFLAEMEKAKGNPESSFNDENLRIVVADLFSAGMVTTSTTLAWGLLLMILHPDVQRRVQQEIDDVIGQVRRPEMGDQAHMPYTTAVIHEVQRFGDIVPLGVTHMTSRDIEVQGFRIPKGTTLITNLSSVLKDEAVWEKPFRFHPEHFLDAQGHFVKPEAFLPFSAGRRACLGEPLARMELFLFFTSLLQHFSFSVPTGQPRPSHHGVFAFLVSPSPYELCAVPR
Description: as §1, §3, §4, §5, §6, §7

[8] = tested on: CYP2A6; settings: 50 μM megestrol acetate, microsomes, tranylcypromine
[9] = target: T3, CYP1A2; format: in vitro ADME; design: purchased BD Biosciences Discovery Labware, Woburn, Mass; host or cells: baculovirus-infected insect cells; settings: 50 μM megestrol acetate, 20 pmol CYP1A2
[10] = target: T5, CYP2A6 (Homo sapiens, UniProt P11509); format: in vitro ADME; design: purchased BD Biosciences Discovery Labware, Woburn, Mass; host or cells: baculovirus-infected insect cells; settings: 50 μM megestrol acetate, 20 pmol CYP2A6
T5 sequence (P11509 1-494): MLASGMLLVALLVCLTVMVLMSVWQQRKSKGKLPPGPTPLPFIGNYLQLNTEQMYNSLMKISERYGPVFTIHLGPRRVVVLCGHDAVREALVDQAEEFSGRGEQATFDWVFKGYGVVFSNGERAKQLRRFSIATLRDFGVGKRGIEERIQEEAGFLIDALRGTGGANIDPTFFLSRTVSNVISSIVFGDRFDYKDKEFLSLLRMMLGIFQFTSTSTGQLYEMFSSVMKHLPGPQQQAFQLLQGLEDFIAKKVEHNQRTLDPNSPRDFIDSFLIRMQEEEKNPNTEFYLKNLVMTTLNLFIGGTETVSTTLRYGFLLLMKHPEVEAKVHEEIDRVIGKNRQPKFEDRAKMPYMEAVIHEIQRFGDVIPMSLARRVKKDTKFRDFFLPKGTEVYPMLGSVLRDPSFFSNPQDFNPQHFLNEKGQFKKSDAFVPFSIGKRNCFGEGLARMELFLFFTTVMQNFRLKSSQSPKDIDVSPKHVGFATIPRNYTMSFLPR

[11] = target: T2, CYP2C9; format: in vitro ADME; design: purchased BD Biosciences Discovery Labware, Woburn, Mass; host or cells: baculovirus-infected insect cells; settings: 50 μM megestrol acetate, 20 pmol CYP2C9
[12] = target: T4, CYP2D6; format: in vitro ADME; design: purchased BD Biosciences Discovery Labware, Woburn, Mass; host or cells: baculovirus-infected insect cells; settings: 50 μM megestrol acetate, 20 pmol CYP2D6
[13] = human, microsomes, 60 min, pH 7.4

## CC(=O)O[C@]1(C(C)=O)CC[C@H]2[C@@H]3C=C(C)C4=CC(=O)CC[C@]4(C)[C@H]3CC[C@@]21C [Megestrol Acetate, 17 α-acetyloxy-6-methylpregna-4,6-diene-3,20-dione]
[1]
  Percent of Parent Disappearance Individual: 54.8%
[2]
  difference in metabolism in the presence or absence of the inhibitor (LC/MS): no significant difference in metabolism
[3]
  percent metabolized in presence vs absence of inhibitor (unpaired two-tailed t-test): does not differ from the percentage of megestrol acetate metabolized in the absence of the inhibitor
[3]; [13]
  metabolized in pooled human liver microsomes: > 20%
[4]
  percent metabolized in presence vs absence of inhibitor (unpaired two-tailed t-test): less than that of the percentage of megestrol acetate metabolized in the absence of the inhibitor
[4]; 50 μM (with 100 μM Quercetin)
  Percent of Parent Disappearance Individual: 7.51%
[4]; [13]
  metabolized in pooled human liver microsomes: > 20%
[5]
  percent metabolized in presence vs absence of inhibitor (unpaired two-tailed t-test): not different from the percentage of megestrol acetate metabolized in the absence of the inhibitor
[5]; [13]
  metabolized in pooled human liver microsomes: > 20%
[6]
  percent metabolized in presence vs absence of inhibitor (unpaired two-tailed t-test): not different from the percentage of megestrol acetate metabolized in the absence of the inhibitor
[6]; [13]
  metabolized in pooled human liver microsomes: > 20%
[7]
  percent metabolized in presence vs absence of inhibitor (unpaired two-tailed t-test): not different from the percentage of megestrol acetate metabolized in the absence of the inhibitor
[7]; [13]
  metabolized in pooled human liver microsomes: > 20%
[8]
  difference in metabolism in the presence or absence of the inhibitor (LC/MS): a slight difference in metabolism
[9]
  metabolism based on analysis of metabolites formed: < 1%
[10]
  metabolites formed: no metabolites were formed
[11]
  metabolites formed: no metabolites observed
[12]
  metabolites formed: no metabolites were detected
